Test results as given in ChEMBL document CHEMBL1201862, “PubChem BioAssay data set” (2004).
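These data come from cells grown in 96-well plates and exposed to compound for 48 hours at five concentrations. GI50: concentration for 50% inhibition of growth.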 The source made the active and inactive calls. Rule as the data show it: active = GI50 up to about 1.1 µM and inactive = higher.

Key:
Experiment in all cases: NCI tumour cell line growth inhibition, 48 h
SN12C = test system: SN12C
CCRF-CEM = test system: CCRF-CEM
Hs-578T = test system: Hs-578T
IGROV-1 = test system: IGROV-1
M14 = test system: M14
MDA-MB-435 = test system: MDA-MB-435
A498 = test system: A498
K562 = test system: K562
SF-539 = test system: SF-539
EKVX = test system: EKVX
NCI-H522 = test system: NCI-H522
U-251 = test system: U-251
SK-MEL-5 = test system: SK-MEL-5
SNB-19 = test system: SNB-19
SK-MEL-28 = test system: SK-MEL-28
SK-OV-3 = test system: SK-OV-3
ACHN = test system: ACHN
MDA-N = test system: MDA-N
SW-620 = test system: SW-620
Malme-3M = test system: Malme-3M

Measured: GI50

CCCCCCCC1c2cc3nc(cc4[nH]c(cc5nc(cc([nH]2)[C@@]1(C)CC(=O)N(C)C)C(C)=C5CCC(=O)O)c(CCC(=O)O)c4C)C=C3C (stereo not given in full)
inactive: SN12C 30.4 µM | CCRF-CEM 18.8 µM | Hs-578T 18.7 µM | IGROV-1 21 µM | M14 14.7 µM | MDA-MB-435 30.2 µM | A498 33.3 µM | K562 21.8 µM | SF-539 18.9 µM | EKVX 55.8 µM | NCI-H522 18.4 µM | U-251 18.9 µM | SK-MEL-5 29.7 µM | SNB-19 20.6 µM | SK-MEL-28 19.1 µM | SK-OV-3 40.6 µM | ACHN 18.5 µM | MDA-N 31 µM | SW-620 42.8 µM | Malme-3M 19.9 µM

CC(=O)CC(O)(C(F)(F)Cl)C(F)(F)Cl
inactive: SN12C > 10 µM | CCRF-CEM > 10 µM | Hs-578T > 10 µM | IGROV-1 > 10 µM | M14 > 10 µM | MDA-MB-435 > 10 µM | A498 > 10 µM | K562 > 10 µM | SF-539 > 10 µM | EKVX > 10 µM | NCI-H522 > 10 µM | U-251 > 10 µM | SK-MEL-5 > 10 µM | SNB-19 > 10 µM | SK-MEL-28 > 10 µM | SK-OV-3 > 10 µM | ACHN > 10 µM | MDA-N > 10 µM | SW-620 > 10 µM | Malme-3M > 10 µM

CN1C(=O)c2ccccc2C(O)(c2ccccc2)C1(O)c1ccccc1 (stereo not given)
inactive: SN12C > 100 µM | CCRF-CEM > 100 µM | Hs-578T 29.2 µM | IGROV-1 58.5 µM | M14 > 100 µM | MDA-MB-435 > 100 µM | A498 > 100 µM | K562 > 100 µM | SF-539 > 100 µM | EKVX 81.5 µM | NCI-H522 > 100 µM | U-251 > 100 µM | SK-MEL-5 74.6 µM | SNB-19 > 100 µM | SK-MEL-28 > 100 µM | SK-OV-3 52.4 µM | ACHN > 100 µM | MDA-N > 100 µM | SW-620 > 100 µM | Malme-3M > 100 µM

O=C(Cl)C1=C(c2ccccc2)C1c1ccccc1 (stereo not given)
inactive: SN12C > 100 µM | CCRF-CEM > 100 µM | Hs-578T > 100 µM | IGROV-1 > 100 µM | M14 > 100 µM | MDA-MB-435 > 100 µM | A498 > 100 µM | K562 > 100 µM | SF-539 > 100 µM | EKVX > 100 µM | NCI-H522 > 100 µM | U-251 > 100 µM | SK-MEL-5 > 100 µM | SNB-19 > 100 µM | SK-MEL-28 > 100 µM | SK-OV-3 > 100 µM | ACHN > 100 µM | MDA-N > 100 µM | SW-620 > 100 µM | Malme-3M > 100 µM

COc1ccc([N+](=O)[O-])c2c(NCC(O)CO)ccnc12 (stereo not given)
inactive: SN12C 77.8 µM | CCRF-CEM 87.1 µM | Hs-578T 22.5 µM | IGROV-1 27.3 µM | M14 52.7 µM | MDA-MB-435 > 100 µM | A498 32.4 µM | K562 18.5 µM | SF-539 28.8 µM | EKVX 16.1 µM | NCI-H522 15.5 µM | U-251 50.4 µM | SK-MEL-5 23 µM | SNB-19 93.8 µM | SK-MEL-28 > 100 µM | SK-OV-3 > 100 µM | ACHN 43.8 µM | MDA-N 49.3 µM | SW-620 42.1 µM | Malme-3M 20.3 µM

CC(C)(C)OC(=O)n1c(Cl)c(C=O)c2ccccc21
inactive: SN12C 23.7 µM | CCRF-CEM 27.9 µM | Hs-578T 34.8 µM | IGROV-1 28.2 µM | M14 34.8 µM | MDA-MB-435 43.9 µM | A498 43.6 µM | K562 38.7 µM | SF-539 30.1 µM | EKVX 28 µM | NCI-H522 > 100 µM | U-251 35.6 µM | SK-MEL-5 43.5 µM | SNB-19 86.1 µM | SK-MEL-28 39.9 µM | SK-OV-3 > 100 µM | ACHN 23.9 µM | MDA-N 44.5 µM | SW-620 36.2 µM | Malme-3M 19.1 µM

CCN(CC)CCn1ccc(=O)c2cc3c(=O)ccn(CCN(CC)CC)c3c(C)c21
inactive: SN12C 5.65 µM | CCRF-CEM 1.77 µM | Hs-578T 4.03 µM | IGROV-1 7.28 µM | M14 9.38 µM | MDA-MB-435 4.65 µM | A498 15.5 µM | K562 2.77 µM | SF-539 11.2 µM | EKVX 5.77 µM | NCI-H522 6.37 µM | U-251 5.89 µM | SK-MEL-5 15.7 µM | SNB-19 5.15 µM | SK-MEL-28 19.9 µM | SK-OV-3 4.13 µM | ACHN 4.02 µM | MDA-N 5.57 µM | SW-620 1.53 µM | Malme-3M 15 µM
